Tests used:
[1] = target: Carbonic anhydrase 9 (Homo sapiens, UniProt Q16790)
Description: Inhibition of human CA9 preincubated for 15 mins by stopped-flow carbon dioxide hydration assay

[2] = target: Carbonic anhydrase 2 (Homo sapiens, UniProt P00918); experiment: Inhibition of human CA2 preincubated for 15 mins by stopped-flow carbon dioxide hydration assay

| SMILES | Ki [1] [nM] | Ki [2] [nM] |
| --- | --- | --- |
| NS(=O)(=O)c1ccc(C(=O)N2CCN(C(=O)c3ccccc3Cl)CC2)cc1 | 62.2 | – |
| NS(=O)(=O)c1ccc(C(=O)N2CCN(C(=O)c3cccc(Cl)c3)CC2)cc1 | 54.4 | 22.5 |
| COc1cccc(C(=O)N2CCN(C(=O)c3ccc(S(N)(=O)=O)cc3)CC2)c1 | 360 | 36.3 |
| Nc1ccccc1C(=O)N1CCN(C(=O)c2ccc(S(N)(=O)=O)cc2)CC1 | 19.1 | 4.1 |
| NS(=O)(=O)c1ccc(C(=O)N2CCN(C(=O)c3ccc([N+](=O)[O-])cc3)CC2)cc1 | 11.2 | 23.9 |
| COc1ccccc1C(=O)N1CCN(C(=O)c2ccc(S(N)(=O)=O)cc2)CC1 | 250 | 19.8 |
| NS(=O)(=O)c1ccc(C(=O)N2CCN(C(=O)c3ccc(F)cc3)CC2)cc1 | 332 | 32.4 |
| Nc1ccc(C(=O)N2CCN(C(=O)c3ccc(S(N)(=O)=O)cc3)CC2)cc1 | 14.3 | 78.8 |
| NS(=O)(=O)c1ccc(C(=O)N2CCN(C(=O)c3ccccc3)CC2)cc1 | 37.1 | – |
| NS(=O)(=O)c1ccc(C(=O)N2CCN(C(=O)c3ccc(Cl)cc3)CC2)cc1 | 29.2 | 7.2 |
| NS(=O)(=O)c1ccc(C(=O)N2CCN(C(=O)c3cccc([N+](=O)[O-])c3)CC2)cc1 | 2.2 | 28.6 |
| NS(=O)(=O)c1ccc(C(=O)N2CCN(C(=O)c3cccc(Br)c3)CC2)cc1 | 16.2 | 0.6 |
| NS(=O)(=O)c1ccc(C(=O)N2CCN(C(=O)c3ccccc3F)CC2)cc1 | 68.7 | 28.4 |
| NS(=O)(=O)c1ccc(C(=O)N2CCN(C(=O)c3ccccc3Br)CC2)cc1 | 60.4 | 3 |
| NS(=O)(=O)c1ccc(C(=O)N2CCN(C(=O)c3ccc(Br)cc3)CC2)cc1 | 8 | 4.4 |
| NS(=O)(=O)c1ccc(C(=O)N2CCN(C(=O)c3ccccc3[N+](=O)[O-])CC2)cc1 | 9.8 | 42.4 |
| Nc1cccc(C(=O)N2CCN(C(=O)c3ccc(S(N)(=O)=O)cc3)CC2)c1 | 15.2 | 51.1 |
| NS(=O)(=O)c1ccc(C(=O)N2CCN(C(=O)c3cccc(F)c3)CC2)cc1 | 3.8 | 0.41 |
